This is an account of results in paper PMC12300835, “Geographic Influence and Metabolomics-Driven Discovery of 5-Alpha Reductase Inhibitors in Tectona grandis L.f. (Teak) Leaves” (Molecules, 2025).

SMILES strings stand for the structures.

Experiment [1] deals with T1, S5AR enzyme derived from LNCaP cells (Homo sapiens, UniProt P18405).
T1 sequence (P18405 1-259): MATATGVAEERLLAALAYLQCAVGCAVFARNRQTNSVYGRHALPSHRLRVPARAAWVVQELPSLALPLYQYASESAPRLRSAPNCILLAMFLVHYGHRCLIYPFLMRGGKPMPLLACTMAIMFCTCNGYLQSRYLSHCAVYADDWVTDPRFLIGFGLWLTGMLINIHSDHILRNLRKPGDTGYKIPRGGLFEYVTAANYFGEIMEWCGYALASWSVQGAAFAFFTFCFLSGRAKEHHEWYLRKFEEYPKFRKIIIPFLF
To be noted: taken from previous publication; read-out: S5AR Inhibitory Activity (IC50); cited from earlier work.

Experiment [2] has as its target T1, S5AR enzyme derived from LNCaP cells. The experiment is described as follows: S5AR inhibition assay (DHT production quantified by LC-MS). The format is biochemical. To be noted: read-out: S5AR percentage inhibition.

For the compound `CC(C)(C)NC(=O)[C@H]1CC[C@H]2[C@@H]3CC[C@H]4NC(=O)C=C[C@]4(C)[C@H]3CC[C@]12C` [Finasteride], the IC50 in experiment [1] was 0.76 ± 0.03 µM. Consider `COc1cc(/C=C/C(=O)CC(=O)/C=C/c2ccc(O)c(OC)c2)ccc1O` [Curcumin], for which the inhibition at 50 µg/mL in experiment [2] was 92.73 ± 0.14%. Take `CC1=C(CC[C@@H](C)CC(=O)O)[C@@]2(C)CCCC(C)(C)C2CC1=O` (stereo partly drawn) [Compound 2, 7-Oxo-8-labden-15-oic acid]: the inhibition at 300 µM in experiment [2] (final concentration of 300 µM) stood at 41.4%.
